“And” between values parts separate entries of the source, which are not always exact repeats. Equal values may be shown once. Toxic doses and inconclusive results are not listed.
Test system: CD2F1 mice, ip Colon 26 adenocarcinoma, median survival T/C
Test: NCI In Vivo Anticancer Drug Screen. Data for tumor model Colon 26 Adenocarcinoma (intraperitoneal) in CD2F1 (CDF1) mice
Details: endpoint: median survival time, higher = longer survival
Procedure: The antitumor activity of compounds was measured in mice bearing transplantable tumors. Survival or tumor size were measured and the results are expressed as the measurement made in the treated group (T) divided by the measurement made in the vehicle treated control group (C). The tumor model used in this assay is Colon 26 Adenocarcinoma (intraperitoneal) in CD2F1 (CDF1) mice

[1] = dose: 25.0 mg/kg/injection, schedule: Q04DX003 (ip), vehicle: water
[2] = dose: 6.25 mg/kg/injection, schedule: Q04DX003 (ip), vehicle: Klucel (hydroxypropylcellulose) (HPC)
[3] = dose: 25.0 mg/kg/injection, schedule: Q04DX003 (ip), vehicle: Klucel (hydroxypropylcellulose) (HPC)
[4] = dose: 50.0 mg/kg/injection, schedule: Q04DX003 (ip), vehicle: Klucel (hydroxypropylcellulose) (HPC)

In the case of `CNc1nc(N(C)C)nc(N(C)C)n1`, the T/C (dose: 6.25 mg/kg/injection, schedule: Q04DX003 (ip), vehicle: water) is reported as 105 % of control, the T/C (dose: 12.5 mg/kg/injection, schedule: Q04DX003 (ip), vehicle: water) is reported as 101 % of control and the T/C [1] is reported as 98 % of control. The T/C (dose: 50.0 mg/kg/injection, schedule: Q04DX003 (ip), vehicle: water) was 112 % of control, the T/C (dose: 100.0 mg/kg/injection, schedule: Q04DX003 (ip), vehicle: water) was 121 % of control and the T/C (dose: 200.0 mg/kg/injection, schedule: Q04DX003 (ip), vehicle: water) was 110 % of control.
With `CCCCNC(C)[C@]1(O)Cc2c(O)c3c(c(O)c2[C@@H](OC2CC(N)C(O)C(C)O2)C1)C(=O)c1c(OC)cccc1C3=O` (stereo partly specified) the T/C (dose: 23.0 mg/kg/injection, schedule: Q07DX002 (iv), vehicle: saline) was 110 % of control, the T/C (dose: 35.0 mg/kg/injection, schedule: Q07DX002 (iv), vehicle: saline) was 122 % of control and the T/C (dose: 54.0 mg/kg/injection, schedule: Q07DX002 (iv), vehicle: saline) was 110 % of control. For the same molecule, the T/C (dose: 84.0 mg/kg/injection, schedule: Q07DX002 (iv), vehicle: saline) was 113 % of control.
For `NC(=O)c1[nH]nc(C2OC(CO)C(O)C2O)c1O` (stereo unspecified), the T/C (dose: 2.59 mg/kg/injection, schedule: Q04DX003 (ip), vehicle: saline) was 115 % of control, the T/C (dose: 4.32 mg/kg/injection, schedule: Q04DX003 (ip), vehicle: saline) was 107 % of control and the T/C (dose: 7.2 mg/kg/injection, schedule: Q04DX003 (ip), vehicle: saline) was 123 % of control. For the same molecule, the T/C (dose: 12.0 mg/kg/injection, schedule: Q04DX003 (ip), vehicle: saline) was 118 % of control and the T/C (dose: 20.0 mg/kg/injection, schedule: Q04DX003 (ip), vehicle: saline) was 90 % of control.
With `NC(=O)c1ncn(C2OC(CO)C(O)C2O)c1O` (stereo unspecified) the T/C (dose: 50.0 mg/kg/injection, schedule: Q04DX002 (ip), vehicle: Klucel (hydroxypropylcellulose) (HPC)) was 107 % of control, the T/C (dose: 100.0 mg/kg/injection, schedule: Q04DX002 (ip), vehicle: Klucel (hydroxypropylcellulose) (HPC)) was 98 % of control and the T/C (dose: 200.0 mg/kg/injection, schedule: Q04DX002 (ip), vehicle: Klucel (hydroxypropylcellulose) (HPC)) was 107 % of control. For the same molecule, the T/C (dose: 400.0 mg/kg/injection, schedule: Q04DX002 (ip), vehicle: Klucel (hydroxypropylcellulose) (HPC)) was 111 % of control.
In the case of `CC(=O)OCC(=O)[C@@]12OC(C)(C)O[C@@H]1C[C@H]1[C@@H]3CC(C=O)=C4C=C(OCCCl)CC[C@]4(C)[C@@]3(F)[C@@H](O)C[C@@]12C`, the T/C (dose: 0.39 mg/kg/injection, schedule: Q04DX002 (ip), vehicle: Klucel (hydroxypropylcellulose) (HPC)) is reported as 94 % of control, the T/C (dose: 0.78 mg/kg/injection, schedule: Q04DX002 (ip), vehicle: Klucel (hydroxypropylcellulose) (HPC)) is reported as 89 % of control and the T/C (dose: 1.56 mg/kg/injection, schedule: Q04DX002 (ip), vehicle: Klucel (hydroxypropylcellulose) (HPC)) is reported as 93 % of control. For the same molecule, the T/C (dose: 3.13 mg/kg/injection, schedule: Q04DX002 (ip), vehicle: Klucel (hydroxypropylcellulose) (HPC)) was 95 % of control, the T/C (dose: 6.25 mg/kg/injection, schedule: Q04DX002 (ip), vehicle: Klucel (hydroxypropylcellulose) (HPC)) was 91 % of control and the T/C (dose: 12.5 mg/kg/injection, schedule: Q04DX002 (ip), vehicle: Klucel (hydroxypropylcellulose) (HPC)) was 88 % of control.
`CCCC(=O)OCc1cc(=O)n(C)c2c3c4c(cc12)c(C)cc(=O)n4CO3` was tested, and the T/C [2] was 98 % of control, the T/C (dose: 12.5 mg/kg/injection, schedule: Q04DX003 (ip), vehicle: Klucel (hydroxypropylcellulose) (HPC)) was 104 % of control and the T/C [3] was 123 % of control. For the same molecule, the T/C (dose: 100.0 mg/kg/injection, schedule: Q04DX003 (ip), vehicle: Klucel (hydroxypropylcellulose) (HPC)) was 152 % of control.
In the case of `COc1cccc2c1C(=O)c1c(O)c3c(c(O)c1C2=O)C[C@@](O)(/C(C)=N\O)C[C@@H]3OC1CC(N)C(O)C(C)O1` (stereo partly specified), the T/C (dose: 10.0 mg/kg/injection, schedule: Q07DX002 (ip), vehicle: saline) is reported as 105 % of control, the T/C (dose: 15.0 mg/kg/injection, schedule: Q07DX002 (ip), vehicle: saline) is reported as 110 % of control and the T/C (dose: 23.0 mg/kg/injection, schedule: Q07DX002 (ip), vehicle: saline) is reported as 115 % of control. For the same molecule, the T/C (dose: 35.0 mg/kg/injection, schedule: Q07DX002 (ip), vehicle: saline) was 119 % of control.
In the case of `COc1cccc2c1C(=O)c1c(O)c3c(c(O)c1C2=O)C[C@@](O)(/C(C)=N\NC(=O)CO)C[C@@H]3OC1CC(N)C(O)C(C)O1` (stereo partly specified), the T/C (dose: 4.5 mg/kg/injection, schedule: Q07DX003 (iv), vehicle: other) is reported as 104 % of control, the T/C (dose: 7.0 mg/kg/injection, schedule: Q07DX003 (iv), vehicle: other) is reported as 101 % of control and the T/C (dose: 11.0 mg/kg/injection, schedule: Q07DX003 (iv), vehicle: other) is reported as 108 % of control. For the same molecule, the T/C (dose: 17.0 mg/kg/injection, schedule: Q07DX003 (iv), vehicle: other) was 104 % of control.
With `[I][Hg][CH2]C1OCCOC1[CH2][Hg][I]` (stereo unspecified) the T/C [3] was 103 % of control and the T/C [4] was 100 % of control.
With `CN(C)CCNc1ccc(NCCN(C)C)c2c1C(=O)c1ccccc1C2=O` the T/C (dose: 5.0 mg/kg/injection, schedule: Q01DX009 (ip), vehicle: acid diluted with saline) was 115 % of control and 119 % of control, the T/C (dose: 10.0 mg/kg/injection, schedule: Q01DX009 (ip), vehicle: acid diluted with saline) was 108 % of control and 123 % of control and 202 % of control and the T/C (dose: 40.0 mg/kg/injection, schedule: Q01DX009 (ip), vehicle: acid diluted with saline) was 104 % of control and 105 % of control.
For `C=C/C(C)=C/[C@H](C)C(=O)C[C@H](O)CC1CC(=O)NC(=O)C1`, the T/C (dose: 6.25 mg/kg/injection, schedule: Q04DX003 (ip), vehicle: saline with Tween-80) was 97 % of control, the T/C (dose: 12.5 mg/kg/injection, schedule: Q04DX003 (ip), vehicle: saline with Tween-80) was 100 % of control and the T/C (dose: 25.0 mg/kg/injection, schedule: Q04DX003 (ip), vehicle: saline with Tween-80) was 108 % of control. The T/C (dose: 50.0 mg/kg/injection, schedule: Q04DX003 (ip), vehicle: saline with Tween-80) was 109 % of control and the T/C (dose: 200.0 mg/kg/injection, schedule: Q04DX003 (ip), vehicle: saline with Tween-80) was 121 % of control.
`CC[C@]1(O)C[C@H]2CN(CCc3c([nH]c4ccccc34)[C@@](C(=O)OC)(c3cc4c(cc3OC)N(C=O)[C@H]3[C@@](O)(C(=O)OC)[C@H](OC(C)=O)[C@]5(CC)C=CCN6CC[C@]43[C@@H]65)C2)C1` was tested, and the T/C (dose: 0.95 mg/kg/injection, schedule: Q07DX003 (ip), vehicle: saline) was 112 % of control and 115 % of control, the T/C (dose: 1.4 mg/kg/injection, schedule: Q07DX003 (ip), vehicle: saline) was 120 % of control and 123 % of control and the T/C (dose: 2.1 mg/kg/injection, schedule: Q07DX003 (ip), vehicle: saline) was 105 % of control. For the same molecule, the T/C (dose: 3.0 mg/kg/injection, schedule: Q07DX003 (ip), vehicle: saline) was 99 % of control.
In the case of `CCOC(=O)Nc1cc2c(c(N)n1)N=C(CN(C)c1ccccc1)CN2`, the T/C [2] is reported as 108 % of control, the T/C [3] is reported as 177 % of control and the T/C [4] is reported as 119 % of control.
In the case of `COc1ccc(CC2C(=O)NC(C)C(=O)N(C)C3C(=O)N(C)C(Cc4ccc(O)c(c4)Oc4ccc(cc4)C3O)C(=O)NC(C)C(=O)NC(C)C(=O)N2C)cc1` (stereo unspecified) (tested in a mixture with another compound), the T/C (dose: 0.5 mg/kg/injection, schedule: Q04DX003 (ip), vehicle: saline) is reported as 98 % of control, the T/C (dose: 1.0 mg/kg/injection, schedule: Q04DX003 (ip), vehicle: saline) is reported as 98 % of control and the T/C (dose: 2.0 mg/kg/injection, schedule: Q04DX003 (ip), vehicle: saline) is reported as 99 % of control.
With `C[C@]12CCC(=O)C=C1CC[C@@H]1[C@@H]2[C@@H](O)C[C@@]2(C)[C@H]1CC[C@]2(O)C(=O)CO` the T/C (dose: 40.0 mg/kg/injection, schedule: Q04DX003 (ip), vehicle: Klucel (hydroxypropylcellulose) (HPC)) was 102 % of control, the T/C (dose: 80.0 mg/kg/injection, schedule: Q04DX003 (ip), vehicle: Klucel (hydroxypropylcellulose) (HPC)) was 100 % of control and the T/C (dose: 160.0 mg/kg/injection, schedule: Q04DX003 (ip), vehicle: Klucel (hydroxypropylcellulose) (HPC)) was 102 % of control. For the same molecule, the T/C (dose: 320.0 mg/kg/injection, schedule: Q04DX003 (ip), vehicle: Klucel (hydroxypropylcellulose) (HPC)) was 102 % of control and the T/C (dose: 640.0 mg/kg/injection, schedule: Q04DX003 (ip), vehicle: Klucel (hydroxypropylcellulose) (HPC)) was 96 % of control.
With `COc1cccc2c1C(=O)c1c(O)c3c(c(O)c1C2=O)C[C@@](O)(C(=O)CO)C[C@@H]3OC1CC([N+](C)(C)C)C(O)C(C)O1` (stereo partly specified) the T/C (dose: 5.4 mg/kg/injection, schedule: Q04DX003 (ip), vehicle: water) was 102 % of control, the T/C (dose: 9.0 mg/kg/injection, schedule: Q04DX003 (ip), vehicle: water) was 103 % of control and the T/C (dose: 15.0 mg/kg/injection, schedule: Q04DX003 (ip), vehicle: water) was 96 % of control. For the same molecule, the T/C [1] was 115 % of control.

From PubChem BioAssay AID210 (DTP/NCI, 2004)
